In PMC7892475, “C-Terminal Amination of a Cationic Anti-Inflammatory Peptide Improves Bioavailability and Inhibitory Activity Against LPS-Induced Inflammation” (Frontiers in Immunology, 2021):

Legend:
[1] = Reverse-phase HPLC retention time as measure of peptide hydrophobicity; format: physicochemical; settings: HPLC on reverse-phase matrix, aqueous solution; used by the paper as measure of hydrophobicity
From the text: The retention time of peptides on a reverse-phase matrix has been reported to be related to peptide hydrophobicity ([34]).

[2] = system: TLR4/MD-2 complex; assay: Surface plasmon resonance binding; settings: SPR, Biacore X100, PBS with 0.05% Tween 20, 30 μl/min, 1:1 model, 0 to 10 μM
Experimental: SPR assays were performed using a Biacore X100 instrument (GE Healthcare, Pittsburgh, PA, USA). PBS containing 0.05% Tween 20 was used as the running buffer. The running buffer was continuously passed into the reaction chamber at 30 μl/min. Immobilization of CTP-NH2 on the chip surface was performed according to an amino coupling protocol. […] Running buffer was injected into the empty channel as a reference. To regenerate the chip surface at the end of each experiment, 10 mM Gly-HCl buffer (pH 2.5) was injected. ProteOn manager software (version 2.0) was used to analyze the experimental data. The binding curves were processed for the start injection alignment and baseline. A reference-subtracted sensorgram was then fitted to the curves describing a homogeneous 1:1 model. Data from the protein surfaces were grouped together to fit the association kinetic rate constant (Ka) and the dissociation rate constant (Kd). The equilibrium dissociation constant (KD) for the peptide-TLR4/MD-2 interaction was calculated as follows: […]

[3] = system: RAW264.7 cells; assay: CCK-8 cell viability assay; format: cell-based, mouse; settings: RAW264.7 macrophages, CCK-8, 0 to 80 μg/ml, 24 h or 72 h, 37°C
Experimental: The viability of peptide-treated RAW264.7 cells was determined using a Cell Counting Kit-8 (CCK-8) Assay Kit (Dojindo) ([35]). RAW264.7 cells were plated in 96-well plates at a density of 3×10^4 cells/ml in 100 μl DMEM overnight. The cell culture medium was then supplemented with fresh medium containing candidate peptides in a series of concentrations, and the plates were incubated for another 24 h or 72 h. Each well was incubated with 10 μl CCK-8 solution for 4 h in the dark. Afterwards, the absorbance at 450 nm was measured using a microplate reader. Cell viability was determined by:
Cell viability (%)=(OD450sample/OD450(control))×100%

[4] = system: RAW264.7 cells; assay: Cellular uptake and localization of FITC-labeled peptides (confocal microscopy, flow cytometry); format: cell-based, mouse; settings: N-terminus FITC-labeled peptide, 10 μg/ml, 24 h, 37°C, confocal microscopy and flow cytometry (average FITC intensity)
Experimental: RAW264.7 cells were treated with N-terminus FITC-labeled peptides at 10 μg/ml for 24 h at 37°C; in the dark. Then, the RAW264.7 cells were rinsed with PBS three times, fixed with paraformaldehyde and washed with PBS. The cell nuclei were stained with DAPI (diluted 1:500 in PBS) (Sigma, USA) for 5 min, and the cells were washed with PBS. The above cells were spread on a glass slide, fixed and observed with a Leica TCA sp5 confocal microscope (Germany).
RAW264.7 cells were stained with 10 μg/ml N-terminus FITC-labeled peptides at 37°C in the dark for 24 h. Afterwards, the RAW264.7 cells were harvested and rinsed with PBS five times. The average FITC intensity in the cells was measured via flow cytometry.

RWGRFLRKIRRFRRKDVT-NH2 [CTP-NH2, C-terminal amidated derivative peptide of CTP]
Retention time [1]: 11.96 min | Ka (association kinetic rate constant) [2]: 1.65e+07 M⁻¹ s⁻¹ | cytotoxicity (comparison in words) [3]: less cytotoxicity than CTP | cellular uptake and localization [4]: significant cellular uptake and a dispersed distribution compared with CTP
